Experimental data: ChEMBL document CHEMBL1201862, “PubChem BioAssay data set” (2004)
Structures can show the parent of a compound that is named as a salt.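 1) Cells in 96-well plates. 2) Compound, 48 h, 5 concentrations. 3) Linear interpolation between surrounding doses. 4) Unreached endpoint = highest concentration. Abbreviation: GI50, concentration required for 50% inhibition of growth.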 Active and inactive are the calls of the source. No stated cut-off is given here; in the data, active = GI50 up to about 1.1 µM and inactive = higher.

Experiments:
Assay in all cases: growth of human tumour cells (NCI), 48 h
MDA-MB-231 = test system: MDA-MB-231
SF-295 = test system: SF-295
NCI-H522 = test system: NCI-H522
SK-MEL-2 = test system: SK-MEL-2
MCF7 = test system: MCF7
MOLT-4 = test system: MOLT-4
DU-145 = test system: DU-145
SK-MEL-5 = test system: SK-MEL-5
RPMI-8226 = test system: RPMI-8226
SF-539 = test system: SF-539
UO-31 = test system: UO-31
MDA-MB-435 = test system: MDA-MB-435
SK-OV-3 = test system: SK-OV-3
SK-MEL-28 = test system: SK-MEL-28
MDA-N = test system: MDA-N
CCRF-CEM = test system: CCRF-CEM
UACC-62 = test system: UACC-62
SW-620 = test system: SW-620
CAKI-1 = test system: CAKI-1
NCI-H460 = test system: NCI-H460

Measured: GI50

O=C(Nc1cccc(-c2cn3ccccc3n2)c1)c1ccncc1
inactive: MDA-MB-231 32 µM | SF-295 40.7 µM | NCI-H522 23.6 µM | SK-MEL-2 22.6 µM | MCF7 31.6 µM | MOLT-4 21.7 µM | DU-145 49.4 µM | SK-MEL-5 24.3 µM | RPMI-8226 17.1 µM | SF-539 50.6 µM | UO-31 43.1 µM | MDA-MB-435 31.9 µM | SK-OV-3 70.8 µM | SK-MEL-28 48.5 µM | MDA-N 31.3 µM | CCRF-CEM 27.3 µM | UACC-62 20.9 µM | SW-620 64.9 µM | CAKI-1 31.3 µM | NCI-H460 16.1 µM

Cc1cc(N(CCOS(C)(=O)=O)CCOS(C)(=O)=O)ccc1/C=N/c1ccc(-c2csc(-c3ccccc3)n2)c(Cl)c1
active: CCRF-CEM 1.1 µM | CAKI-1 0.179 µM | NCI-H460 0.0647 µM
inactive: MDA-MB-231 20.6 µM | SF-295 2.36 µM | NCI-H522 1.63 µM | SK-MEL-2 21 µM | MCF7 4.27 µM | MOLT-4 2.43 µM | DU-145 1.67 µM | SK-MEL-5 7.6 µM | RPMI-8226 11.2 µM | SF-539 3.94 µM | UO-31 9.75 µM | MDA-MB-435 9.79 µM | SK-OV-3 3.37 µM | SK-MEL-28 21.6 µM | MDA-N 3.78 µM | UACC-62 2.95 µM | SW-620 5.2 µM

NCCSSCCN [CYSTAMINE HYDROCHLORIDE]
inactive: MDA-MB-231 > 100 µM | SF-295 > 100 µM | NCI-H522 > 100 µM | SK-MEL-2 > 100 µM | MCF7 > 100 µM | MOLT-4 > 100 µM | DU-145 > 100 µM | SK-MEL-5 > 100 µM | RPMI-8226 > 100 µM | SF-539 > 100 µM | UO-31 > 100 µM | MDA-MB-435 > 100 µM | SK-OV-3 > 100 µM | SK-MEL-28 > 100 µM | MDA-N > 100 µM | CCRF-CEM 56.1 µM | UACC-62 > 100 µM | SW-620 > 100 µM | CAKI-1 > 100 µM | NCI-H460 > 100 µM

NNC(=O)C1(NC(=O)c2ccccc2)C(c2ccccc2)C(c2ccccc2)=NN1c1ccccc1 (centres undefined)
inactive: MDA-MB-231 66.8 µM | SF-295 24.5 µM | NCI-H522 55.3 µM | SK-MEL-2 41.5 µM | MCF7 37.9 µM | MOLT-4 12.7 µM | DU-145 72.6 µM | SK-MEL-5 30 µM | RPMI-8226 21.1 µM | SF-539 44.2 µM | UO-31 27.8 µM | MDA-MB-435 29.2 µM | SK-OV-3 29.9 µM | SK-MEL-28 90.4 µM | MDA-N 24.2 µM | CCRF-CEM 8.99 µM | UACC-62 23.1 µM | SW-620 46.6 µM | CAKI-1 15.6 µM | NCI-H460 43.8 µM

Cc1ccc([N+](=O)[O-])cc1S(=O)(=O)Nc1ccc(C2=NOC(c3ccccc3O)C2)cc1 (centres undefined)
active: UO-31 < 0.01 µM | MDA-MB-435 1.01 µM
inactive: MDA-MB-231 4.5 µM | SF-295 3.85 µM | NCI-H522 1.29 µM | SK-MEL-2 2.74 µM | MCF7 3.33 µM | MOLT-4 2.76 µM | DU-145 13.3 µM | SK-MEL-5 4.68 µM | RPMI-8226 4.26 µM | SF-539 4.58 µM | SK-OV-3 15.3 µM | SK-MEL-28 12.8 µM | MDA-N 1.56 µM | CCRF-CEM 8.93 µM | UACC-62 2.97 µM | SW-620 4.18 µM | CAKI-1 9.42 µM | NCI-H460 4.09 µM

CNC(=S)/C(C#N)=C(\N)N1CCN(C)CC1
inactive: MDA-MB-231 30.5 µM | SF-295 > 100 µM | NCI-H522 > 100 µM | SK-MEL-2 > 100 µM | MCF7 > 100 µM | MOLT-4 > 100 µM | DU-145 > 100 µM | SK-MEL-5 > 100 µM | RPMI-8226 > 100 µM | SF-539 > 100 µM | UO-31 > 100 µM | MDA-MB-435 > 100 µM | SK-OV-3 > 100 µM | MDA-N > 100 µM | CCRF-CEM > 100 µM | UACC-62 > 100 µM | SW-620 > 100 µM | CAKI-1 > 100 µM

C#CCCOC(=O)c1ccccc1OC(C)=O
inactive: MDA-MB-231 > 100 µM | SF-295 > 100 µM | NCI-H522 63.7 µM | SK-MEL-2 > 100 µM | MCF7 > 100 µM | MOLT-4 > 100 µM | DU-145 > 100 µM | SK-MEL-5 > 100 µM | RPMI-8226 > 100 µM | SF-539 > 100 µM | UO-31 > 100 µM | MDA-MB-435 > 100 µM | SK-OV-3 > 100 µM | MDA-N > 100 µM | CCRF-CEM > 100 µM | UACC-62 > 100 µM | SW-620 > 100 µM | CAKI-1 > 100 µM | NCI-H460 > 100 µM

CN1C(=O)C(O)C[C@@H]1c1ccccc1 (some centres undefined)
inactive: MDA-MB-231 > 100 µM | SF-295 > 100 µM | NCI-H522 > 100 µM | SK-MEL-2 > 100 µM | MCF7 > 100 µM | MOLT-4 > 100 µM | DU-145 > 100 µM | SK-MEL-5 > 100 µM | RPMI-8226 > 100 µM | SF-539 > 100 µM | UO-31 > 100 µM | MDA-MB-435 > 100 µM | SK-OV-3 > 100 µM | SK-MEL-28 > 100 µM | MDA-N > 100 µM | CCRF-CEM > 100 µM | UACC-62 > 100 µM | SW-620 > 100 µM | CAKI-1 > 100 µM

CCOc1ccc(/C=C2\N=C(c3ccc([N+](=O)[O-])cc3)OC2=O)cc1
inactive: MDA-MB-231 > 100 µM | SF-295 > 100 µM | NCI-H522 > 100 µM | SK-MEL-2 > 100 µM | MCF7 > 100 µM | MOLT-4 > 100 µM | DU-145 > 100 µM | SK-MEL-5 > 100 µM | RPMI-8226 > 100 µM | SF-539 > 100 µM | MDA-MB-435 > 100 µM | SK-OV-3 > 100 µM | SK-MEL-28 > 100 µM | MDA-N > 100 µM | CCRF-CEM > 100 µM | UACC-62 > 100 µM | SW-620 > 100 µM | CAKI-1 > 100 µM | NCI-H460 > 100 µM

C/C(=C(/C)c1ccc(O)cc1)c1ccc(O)cc1 [DIMETHYLSTILBESTROL]
inactive: MDA-MB-231 > 100 µM | NCI-H522 > 100 µM | SK-MEL-2 10 µM | MCF7 39.5 µM | MOLT-4 45.5 µM | DU-145 87.3 µM | SK-MEL-5 19.5 µM | RPMI-8226 34.9 µM | SF-539 32.3 µM | UO-31 70.8 µM | MDA-MB-435 37.9 µM | SK-OV-3 > 100 µM | MDA-N 31.8 µM | CCRF-CEM 42.3 µM | UACC-62 23.7 µM | SW-620 > 100 µM | CAKI-1 37 µM | NCI-H460 49.8 µM

Cc1ccccc1OC(C)C(=O)NN1C(=O)CC(=O)NC1=S (centres undefined)
inactive: MDA-MB-231 > 100 µM | SF-295 86.7 µM | NCI-H522 > 100 µM | SK-MEL-2 > 100 µM | MCF7 47.4 µM | MOLT-4 94.8 µM | DU-145 > 100 µM | SK-MEL-5 > 100 µM | RPMI-8226 > 100 µM | SF-539 > 100 µM | UO-31 > 100 µM | MDA-MB-435 > 100 µM | SK-OV-3 > 100 µM | SK-MEL-28 > 100 µM | MDA-N > 100 µM | UACC-62 80.5 µM | SW-620 > 100 µM | CAKI-1 > 100 µM | NCI-H460 > 100 µM

C/C(=N\NC(=[Se])N1CCN(c2ccccn2)CC1)c1ccccn1
inactive: SF-295 2.42 µM | MOLT-4 2.58 µM | DU-145 5.14 µM | SF-539 2.51 µM | UO-31 4.02 µM | MDA-MB-435 2.06 µM | SK-OV-3 2.75 µM | SK-MEL-28 10 µM | MDA-N 2.99 µM | UACC-62 1.41 µM | CAKI-1 2.65 µM
active: MDA-MB-231 0.01 µM | NCI-H522 0.125 µM | SK-MEL-2 0.238 µM | MCF7 0.01 µM | SK-MEL-5 0.0475 µM | RPMI-8226 0.036 µM | SW-620 0.01 µM | NCI-H460 0.0269 µM

Cc1cccc2[nH]c3c(c(O)cc4[nH]c5cccc(C)c5c(=O)c43)c(=O)c12
inactive: MDA-MB-231 8.11 µM | SF-295 7.53 µM | NCI-H522 > 10 µM | SK-MEL-2 > 10 µM | MCF7 > 10 µM | MOLT-4 3.88 µM | DU-145 5.98 µM | SK-MEL-5 9.04 µM | RPMI-8226 > 10 µM | SF-539 > 10 µM | MDA-MB-435 4.89 µM | SK-OV-3 > 10 µM | SK-MEL-28 > 10 µM | MDA-N > 10 µM | CCRF-CEM > 10 µM | UACC-62 > 10 µM | SW-620 6.11 µM | CAKI-1 > 10 µM | NCI-H460 5.57 µM

O=C(CSc1nc2ccc(I)cc2c(=O)n1Cc1ccccc1)Nc1ccccc1
inactive: MDA-MB-231 16.5 µM | SF-295 14.9 µM | NCI-H522 16 µM | SK-MEL-2 13.8 µM | MCF7 50.6 µM | MOLT-4 > 100 µM | DU-145 29.9 µM | SK-MEL-5 32.1 µM | RPMI-8226 88.3 µM | SF-539 3.08 µM | MDA-MB-435 > 100 µM | SK-OV-3 12.1 µM | SK-MEL-28 35.6 µM | MDA-N > 100 µM | CCRF-CEM > 100 µM | UACC-62 46.6 µM | SW-620 92.7 µM | CAKI-1 12.9 µM
active: UO-31 0.331 µM
